Measurements published in ChEMBL document CHEMBL5634174, “Biological evaluation of sulfonate and sulfate analogues of lithocholic acid: A bioisosterism-guided approach towards the discovery of potential sialyltransferase inhibitors for antimetastatic study” (Bioorg Med Chem Lett, 2024).
Activity calls are given as the source filed them. The calls are words filed in the database; no cut-off is given here.

Experiments:
[1] = target: T1, CMP-N-acetylneuraminate-beta-1,4-galactoside alpha-2,3-sialyltransferase (Homo sapiens, UniProt Q11203); assay: Inhibition of ST3GAL3 (unknown origin)
T1 sequence (Q11203 whole entry): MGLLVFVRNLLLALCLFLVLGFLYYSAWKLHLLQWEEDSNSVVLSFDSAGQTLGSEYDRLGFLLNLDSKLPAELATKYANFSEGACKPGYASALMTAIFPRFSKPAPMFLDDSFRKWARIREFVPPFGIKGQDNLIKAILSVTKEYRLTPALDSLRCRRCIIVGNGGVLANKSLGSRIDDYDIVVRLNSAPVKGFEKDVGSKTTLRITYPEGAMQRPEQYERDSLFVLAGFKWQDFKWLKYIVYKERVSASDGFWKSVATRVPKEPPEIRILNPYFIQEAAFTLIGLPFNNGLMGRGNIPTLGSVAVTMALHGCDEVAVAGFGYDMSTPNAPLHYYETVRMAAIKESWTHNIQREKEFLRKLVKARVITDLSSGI

[2] = target: T2, Beta-galactoside alpha-2,6-sialyltransferase 1 (Homo sapiens, UniProt P15907); assay: Inhibition of ST6GAL1 (unknown origin)
T2 sequence (P15907 whole entry): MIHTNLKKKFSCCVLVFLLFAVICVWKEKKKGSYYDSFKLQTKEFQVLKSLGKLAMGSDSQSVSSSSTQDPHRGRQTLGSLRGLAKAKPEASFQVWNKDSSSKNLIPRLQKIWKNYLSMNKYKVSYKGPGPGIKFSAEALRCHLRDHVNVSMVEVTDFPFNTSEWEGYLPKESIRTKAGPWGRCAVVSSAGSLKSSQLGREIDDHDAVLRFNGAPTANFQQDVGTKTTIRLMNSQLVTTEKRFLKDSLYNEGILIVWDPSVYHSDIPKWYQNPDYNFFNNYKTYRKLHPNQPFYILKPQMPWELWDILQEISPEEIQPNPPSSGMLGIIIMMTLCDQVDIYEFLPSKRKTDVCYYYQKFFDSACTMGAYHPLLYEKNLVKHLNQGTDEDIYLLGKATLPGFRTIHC

[3] = target: T3, CMP-N-acetylneuraminate-beta-galactosamide-alpha-2,3-sialyltransferase 1 (Homo sapiens, UniProt Q11201); assay: Inhibition of ST3GAL1 (unknown origin)
T3 sequence (Q11201 whole entry): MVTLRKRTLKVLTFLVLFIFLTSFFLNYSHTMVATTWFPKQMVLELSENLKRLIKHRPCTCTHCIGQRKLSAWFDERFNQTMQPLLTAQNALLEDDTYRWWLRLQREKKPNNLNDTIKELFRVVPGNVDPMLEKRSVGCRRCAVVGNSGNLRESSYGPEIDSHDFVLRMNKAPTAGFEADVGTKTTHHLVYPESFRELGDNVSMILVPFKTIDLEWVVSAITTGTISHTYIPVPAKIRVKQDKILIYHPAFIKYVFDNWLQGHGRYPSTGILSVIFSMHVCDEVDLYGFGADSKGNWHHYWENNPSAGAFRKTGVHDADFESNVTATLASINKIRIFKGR

[4] = target: T4, Sialyltransferase ST3Gal-I (Rattus norvegicus, UniProt Q6H8N0); assay: Inhibition of rat ST3GAL1 by UPLC-based assay
T4 sequence (Q6H8N0 whole entry): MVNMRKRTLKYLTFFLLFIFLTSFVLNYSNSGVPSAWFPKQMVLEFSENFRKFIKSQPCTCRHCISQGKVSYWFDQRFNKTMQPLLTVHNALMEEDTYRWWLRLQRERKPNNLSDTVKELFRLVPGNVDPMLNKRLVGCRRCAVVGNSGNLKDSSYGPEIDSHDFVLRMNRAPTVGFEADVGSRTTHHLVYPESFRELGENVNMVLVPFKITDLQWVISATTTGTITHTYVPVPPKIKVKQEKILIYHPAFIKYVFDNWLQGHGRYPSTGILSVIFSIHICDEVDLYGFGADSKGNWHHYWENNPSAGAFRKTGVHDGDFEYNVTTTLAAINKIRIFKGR

MDA-MB-231 [5] = assay: Antimigratory activity against human MDA-MB-231 cells at 60 uM incubated for 16 hrs by transwell migration assay; assay type: functional, cell-based
[6] = target: T5, Sialyltransferase ST3Gal-I (Rattus norvegicus) (UniProt Q6H8N0); assay: Inhibition of rat ST3GAL1 at 1000 uM by UPLC-based assay relative to control
T5 sequence (whole entry): T4 sequence (Q6H8N0 whole entry)

[7] = target: T6, Beta-galactoside alpha-2,6-sialyltransferase 1 (Homo sapiens) (UniProt P15907); assay: Inhibition of recombinant human N-terminal His tagged ST6GAL1 (44 to 406 residues) at 50 uM by UPLC-based assay relative to control
T6 sequence (whole entry): T2 sequence (P15907 whole entry)

[8] = target: T5, Sialyltransferase ST3Gal-I (Rattus norvegicus); assay: Inhibition of rat ST3GAL1 at 500 uM by UPLC-based assay relative to control
[9] = Selectivity index, ratio of IC50 for inhibition of rat ST3GAL1 to IC50 for inhibition of human ST6GAL1
[10] = target: T2, Beta-galactoside alpha-2,6-sialyltransferase 1; assay: Inhibition of recombinant human N-terminal His tagged ST6GAL1 (44 to 406 residues) by UPLC-based assay
MDA-MB-231 [11] = assay: Antiproliferative activity against human MDA-MB-231 cells assessed as cell viability at 80 uM by MTT assay; assay type: functional, cell-based
[12] = target: T7, CMP-N-acetylneuraminate-beta-galactosamide-alpha-2,3-sialyltransferase 1 (Mus musculus, UniProt P54751); assay: Inhibition of mouse brain ST3Gal1 expressed in COS-7 cells using CMP-[14C]NeuAc as substrate assessed as inhibition of constant incubated for 30 mins in presence of Galbeta1,3GalNAcOBzl by Lineweaver-Burk plot analysis
T7 sequence (P54751 whole entry): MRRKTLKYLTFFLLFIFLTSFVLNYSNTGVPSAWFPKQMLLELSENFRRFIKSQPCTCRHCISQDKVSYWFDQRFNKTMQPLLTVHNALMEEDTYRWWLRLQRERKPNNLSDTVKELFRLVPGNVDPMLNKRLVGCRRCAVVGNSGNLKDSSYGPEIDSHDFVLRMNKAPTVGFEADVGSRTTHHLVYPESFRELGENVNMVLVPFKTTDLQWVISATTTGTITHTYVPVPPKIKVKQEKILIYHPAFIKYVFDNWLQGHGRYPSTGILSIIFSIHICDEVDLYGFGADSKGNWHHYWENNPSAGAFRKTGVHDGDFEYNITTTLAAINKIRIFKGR

MDA-MB-231 [13] = assay: Inhibition of cell invasion in human MDA-MB-231 cells assessed as reduction in cell adhesion to collagen IV at 60 uM incubated for 48 hrs; assay type: functional, cell-based
MDA-MB-231 [14] = assay: Inhibition of cell invasion in human MDA-MB-231 cells assessed as reduction in cell adhesion to fibronectin at 60 uM incubated for 24 hrs; assay type: functional, cell-based
MDA-MB-231 [15] = assay: Inhibition of cell invasion in human MDA-MB-231 cells assessed as reduction in cell adhesion at 60 uM after 48 hrs; assay type: functional, cell-based
[16] = target: T2, Beta-galactoside alpha-2,6-sialyltransferase 1; assay: Inhibition of human ST6GAL1 in the Galbeta1,4GlcNAcbeta-4,5-dimethoxy-2-nitrobenzyl

| SMILES | IC50 [4] | inhibition [6] | inhibition [7] | inhibition [8] | IC50 [10] | further results |
| --- | --- | --- | --- | --- | --- | --- |
| C[C@H](CCC(=O)O)[C@H]1CC[C@H]2[C@@H]3CC[C@@H]4C[C@H](OC(=O)[C@H](CC(=O)O)Nc5ccc([N+](=O)[O-])c6nonc56)CC[C@]4(C)[C@H]3CC[C@]12C |  |  |  |  |  | IC50 [1]: 0.88 µM; IC50 [2]: 1.5 µM; IC50 [3]: 13 µM |
| C[C@H](CCCS(=O)(=O)O)[C@H]1CC[C@H]2[C@@H]3CC[C@@H]4C[C@H](O)CC[C@]4(C)[C@H]3CC[C@]12C | > 1000 µM | 40% | 100% | 5% | 18.5 µM | Activity (MDA-MB-231 [5]): Active; Ratio IC50 [9]: > 54 |
| C[C@H](CCCS(=O)(=O)O)[C@H]1CC[C@H]2[C@@H]3CC[C@@H]4C[C@H](OS(=O)(=O)O)CC[C@]4(C)[C@H]3CC[C@]12C | 500 µM | 100% | 0% | 35% | > 50 µM | Activity (MDA-MB-231 [11]): Active |
| C[C@H](CCC(=O)NCCS(=O)(=O)O)[C@H]1CC[C@H]2[C@@H]3CC[C@@H]4C[C@H](O)CC[C@]4(C)[C@H]3C[C@H](O)[C@]12C [TAURODEOXYCHOLIC ACID] | > 500 µM |  | 0% | 3% | > 50 µM |  |
| C[C@H](CCC(=O)O)[C@H]1CC[C@H]2[C@@H]3CC[C@@H]4C[C@H](O)CC[C@]4(C)[C@H]3CC[C@]12C [LITHOCHOLIC ACID] | 500 µM | 64% | 0% | 53% | > 50 µM |  |
| C[C@@H]1O[C@@H](O[C@H]2[C@H](O[C@H]3[C@H](O[C@H]4CC[C@@]5(C)[C@@H](CC[C@]6(C)[C@@H]5CC=C5[C@@H]7CC(C)(C)C[C@@H](O)[C@]7(C)CC[C@]56C)[C@@]4(C)CO)O[C@H](C(=O)O)[C@@H](O)[C@@H]3O)O[C@H](CO)[C@H](O)[C@@H]2O)[C@H](O)[C@H](O)[C@H]1O [SOYASAPONIN I] |  |  |  |  |  | Ki [12]: 2.3 µM |
| C[C@H](CCC(=O)O)[C@H]1CC[C@H]2[C@@H]3C[C@H](O)[C@@H]4C[C@H](O)CC[C@]4(C)[C@H]3CC[C@]12C [HYODEOXYCHOLIC_ACID] | > 500 µM |  | 0% | 7% | > 50 µM |  |
| C[C@H](CCCOS(=O)(=O)O)[C@H]1CC[C@H]2[C@@H]3CC[C@@H]4C[C@H](OS(=O)(=O)O)CC[C@]4(C)[C@H]3CC[C@]12C | 402 µM | 100% | 100% | 90% | 21.5 µM | inhibition (MDA-MB-231 [13]): Active; Activity (MDA-MB-231 [5]): Active; inhibition (MDA-MB-231 [14]): Active; Ratio IC50 [9]: 19; inhibition (MDA-MB-231 [15]): inactive |
| C[C@H](CCC(=O)O)[C@H]1CC[C@H]2[C@@H]3[C@H](O)C[C@@H]4C[C@H](O)CC[C@]4(C)[C@H]3CC[C@]12C [CHENODIOL] | > 500 µM |  | 0% | 6% | > 50 µM |  |
| C[C@H](CCC(=O)O)[C@H]1CC[C@H]2[C@@H]3CC[C@@H]4C[C@H](OC(=O)[C@@H](N)CC(=O)O)CC[C@]4(C)[C@H]3CC[C@]12C |  |  |  |  |  | IC50 [16]: 17 µM |
| C[C@H](CCC(=O)O)[C@H]1CC[C@H]2[C@@H]3CC[C@@H]4C[C@H](OS(=O)(=O)O)CC[C@]4(C)[C@H]3CC[C@]12C | 500 µM | 82% | 0% | 23% | > 50 µM |  |
| C[C@H](CCC(=O)O)[C@H]1CC[C@H]2[C@@H]3[C@@H](O)C[C@@H]4C[C@H](O)CC[C@]4(C)[C@H]3CC[C@]12C [URSODIOL] | > 500 µM |  | 0% | 3% | > 50 µM |  |
